Source: US20250206734A1, “BICYCLIC HETEROCYCLES AS MRGPRX2 ANTAGONISTS” (Incyte Corporation, priority 2023, published 2025)

Tests used:
Format in all cases: cell-based
MRGPRX2 [1] = target: T1, MRGPRX2 (Homo sapiens, UniProt Q96LB1); assay: MRGPRX2 IP1 HTRF Assay; design: host or cells: CHO-K1; details: CHO-K1 cells stably expressing human MRGPRX2; IP1 accumulation; agonist Cortistatin 14 1 μM
T1 sequence (Q96LB1 1-330): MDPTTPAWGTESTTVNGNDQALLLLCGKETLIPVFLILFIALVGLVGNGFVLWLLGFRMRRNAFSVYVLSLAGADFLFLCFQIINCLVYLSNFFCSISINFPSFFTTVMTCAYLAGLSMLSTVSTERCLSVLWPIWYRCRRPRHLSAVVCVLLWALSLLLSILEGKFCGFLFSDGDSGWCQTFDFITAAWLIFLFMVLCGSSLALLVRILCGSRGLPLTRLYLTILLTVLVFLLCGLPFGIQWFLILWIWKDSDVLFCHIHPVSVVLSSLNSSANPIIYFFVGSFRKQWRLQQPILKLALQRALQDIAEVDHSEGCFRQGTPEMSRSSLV
Text: Example B: MRGPRX2 IP1 HTRF Assay
This assay measures compound inhibition of myo-Inositol 1 phosphate (IP1) accumulation in CHO-K1 cells. Chinese hamster ovary (CHO-K1) cells stably expressing human MRGPRX2 were purchased from GenScript (Piscataway, NJ).
For the HTRF IP1 determination, an IP-One GqKit (Perkin Elmer Cisbio, Waltham, MA), which includes all reagents and buffers in this protocol, was used. The cells were maintained in culture medium (Ham's F-12K) containing 10% (v/v) FBS, and 200 μg/mL Zeocin. For the assay, the cells were harvested and resuspended in culture medium with 2% FBS and without Zeocin, then were passed through a 40 μm filter. Cells were added at 20000 cells in a 5 μL/well to a 384-well white small volume cell culture plate (Greiner VWR, Radnor, PA) which contained 50 nL/well of test compound serially diluted at a selected concentration range in DMSO. 5 μL/well of prepared 2× Stimulation Buffer2 was then added to plates and was incubated at 37° C. with 5% CO2 for 1 h. 5 μL/well of agonist Cortistatin 14 (Bio-TechneR&D Systems, Minneapolis, MN) in 1× Stimulation Buffer 2, for a 1 μM final concentration, was then added to plates and incubated at 37° C. with 5% CO2 for 1 h. 6 μL/well of 1:20 diluted Detection Reagent Mix (d2 and Cryptate) was added to the plates and incubated for 1 h in the dark. Plates were read on the PHERAstar microplate reader (BMG Labtech Cary, NC) to determine the HTRF ratio of the acceptor and donor emission signals. The IP1 concentrations were calculated from a standard curve following the IP-One GQ kit instructions. Wells with DMSO only and wells with high concentration of reference antagonist were used as controls for normalization. Compound IC50 curves were globally fitted with 3- or 4-parameter Hill equation in a Genedata Screener (Genedata Basel, Switzerland).

MRGPRX2 [2] = target: T1, MRGPRX2; assay: MRGPRX2 β-Arrestin Assay; design: host or cells: PathHunter CHO-K1; details: PathHunter CHO-K1 MRGPRX2 β-Arrestin cell line; agonist Cortistatin 14 0.25 μM
Text: Example C: MRGPRX2 β-Arrestin Assay
This assay measures compound inhibition of β-Arrestin recruitment, which is part of the G protein-independent pathway that results from the ligand-activated GPCR phosphorylation by specific GPCR kinases. The PathHunter CHO-K1 MRPGRX2 B-Arrestin Cell line stably expressing ProLink tagged MRGPRX2 and Enzyme Acceptor Tagged B-Arrestin was purchased from Eurofins DiscoverX, (Fremont, CA).
The cells were maintained in culture medium from the Europhins DiscoverX Cell Culture Kit-107 which includes FBS, hygromycin B and G418. For the assay, the cells were harvested and were resuspended with Cell Plating Reagent 2 (Eurofins DiscoverX). Cells were added 10000 cells in 25 μL/well to a 384-well black cell culture plate (Greiner VWR, Radnor, PA) which contained 125 nL/well of compound at a selected serially diluted concentration range or DMSO. The plate was incubated at 37° C. with 5% CO2 for 1 h. 2 μL/well of agonist Cortistatin 14 was diluted in Protein Dilution Buffer, (Eurofins DiscoverX) for a final concentration of 0.25 μM, was added and the plate was incubated at 37° C. with 5% CO2 for 90 min. 14 μL/well of Detection Reagent Mix (PathHunter Detection Kit, Eurofins DiscoverX) was added to the plates and further incubated for 1 h in the dark. Plates were read on the PHERAstar microplate reader (BMG Labtech Cary, NC) measuring luminescence 0.1 to 1 s per well. Data was normalized using DMSO only wells and wells with high concentration of reference antagonist as controls. Compound IC50 curves were globally fitted with 3- or 4-parameter Hill equation in a Genedata Screener (Genedata Basel, Switzerland).

MRGPRX2 [3] = target: T1, MRGPRX2; assay: MRGPRX2 FLIPR Calcium Mobilization Assay; design: host or cells: CHO-K1; details: CHO-K1 cells stably expressing human MRGPRX2; Ca2+ release; agonist Cortistatin-14 at EC80
Description: Example A. MRGPRX2 FLIPR Calcium Mobilization Assay
Chinese hamster ovary (CHO-K1) cells stably expressing human MRGPRX2 were purchased from Genescript (Piscataway, NJ). The cells were maintained in culture medium (Ham's F-12K) containing 10% (v/v) FBS, 200 μg/mL Zeocin, 100 units/mL penicillin G and 100 μg/mL streptomycin (Life Technologies, Carlsbad, CA). For the assay, the cells were harvested and resuspended with culture medium without Zeocin before plating at 8000 cells per well in 20 μL in 384-well black clear bottom cell culture plates (VWR, Radnor, PA). After 24 hour culture at 37° C. and 5% CO2, the cells were loaded with 20 μL/well of calcium dye (FLIPR Calcium 6 Assay Kit, Molecular Devices, San Jose, CA) diluted in loading buffer (1× Hank's Balanced Salt Solution (HBSS), 5 mM probenecid, 20 mM 4-(2-hydroxyethyl)-1-piperazineethanesulfonic acid (HEPES), pH 7.4, VWR, Radnor, PA) followed with 45 min incubation at 37° C. and 40 min. at r.t. in the dark. Cells were then treated with the addition of 10 uL/well test compounds with a range of increasing concentrations diluted in the assay buffer (1×HBSS, 20 mM HEPES, pH 7.4, VWR, Radnor, PA) with FLIPR Penta (Molecular Devices. San Jose, CA) and incubated for 30 min. at r.t. Ca^2+ release was measured with FLIPR Penta with 10 s basal fluorescence measurement, then 12.5 μL of 5× agonist Cortistatin-14 (Tocris, Minneapolis, MN) at final concentration corresponding to the EC80 were added followed with continued fluorescence signal monitoring for an additional 110 s. The base line adjusted (median of first 10s base line) max value of the Relative Fluorescence Unit (RFU) was plotted against compound concentrations. Wells with no compound were served as the positive controls, and wells with high concentration of reference antagonist were used as negative controls. IC50 curves were globally fitted with 3- or 4-parameter Hill equation in a Genedata Screener (Genedata Basel, Switzerland).

`Fc1ccc(Oc2cnc3cc(C(N4CCC(F)(F)CC4)C(F)(F)F)ncc3c2)c(F)c1` (stereo not drawn) [Example 6, 3-(2,4-Difluorophenoxy)-7-(1-(4,4-difluoropiperidin-1-yl)-2,2,2-trifluoroethyl)-1,6-naphthyridine] gave an IC50 (MRGPRX2 [1]) of 0.0001 to 0.1 µM, an IC50 (MRGPRX2 [2]) of 0.0001 to 0.1 µM and an IC50 (MRGPRX2 [3]) of 0.0001 to 0.1 µM.

Molecule `O=c1ccc(C2CCCN(C(c3cc4ncc(Oc5ccc(F)cc5F)cc4cn3)C(F)(F)F)C2)cn1CC(F)(F)F` (stereo not drawn) [Example 16, 5-(1-(1-(3-(2,4-Difluorophenoxy)-1,6-naphthyridin-7-yl)-2,2,2-trifluoroethyl)piperidin-3-yl)-1-(2,2,2-trifluoroethyl)pyridin-2(1H)-one] has an IC50 (MRGPRX2 [1]) of 0.0001 to 0.1 µM, an IC50 (MRGPRX2 [2]) of 0.0001 to 0.1 µM and an IC50 (MRGPRX2 [3]) of 0.0001 to 0.1 µM.

`Fc1ccc(Oc2cnc3cc(C(N4CCCC4c4ccncc4)C(F)(F)F)ncc3c2)c(F)c1` (stereo not drawn) [Example 12, 3-(2,4-Difluorophenoxy)-7-(2,2,2-trifluoro-1-(2-(pyridin-4-yl)pyrrolidin-1-yl)ethyl)-1,6-naphthyridine] gave an IC50 (MRGPRX2 [1]) of 0.0001 to 0.1 µM, an IC50 (MRGPRX2 [2]) of 0.0001 to 0.1 µM and an IC50 (MRGPRX2 [3]) of 0.0001 to 0.1 µM.

For `Fc1ccc(Oc2cnc3cc(C(N4CCCCC4)C(F)(F)F)ncc3c2)c(F)c1` (stereo not drawn) [Example 5, 3-(2,4-Difluorophenoxy)-7-(2,2,2-trifluoro-1-(piperidin-1-yl)ethyl)-1,6-naphthyridine], the IC50 (MRGPRX2 [1]) was 0.1 to 1 µM, the IC50 (MRGPRX2 [2]) was 0.0001 to 0.1 µM and the IC50 (MRGPRX2 [3]) was 0.0001 to 0.1 µM.

With `Fc1ccc(Oc2cnc3cc(C(N4CCCC4c4ccccc4)C(F)(F)F)ncc3c2)c(F)c1` (stereo not drawn) [Example 7, 3-(2,4-Difluorophenoxy)-7-(2,2,2-trifluoro-1-(2-phenylpyrrolidin-1-yl)ethyl)-1,6-naphthyridine] the IC50 (MRGPRX2 [1]) was 0.0001 to 0.1 µM, the IC50 (MRGPRX2 [2]) was 0.0001 to 0.1 µM and the IC50 (MRGPRX2 [3]) was 0.0001 to 0.1 µM.

`CC(c1cc2ncc(Oc3ccc(F)cc3F)cc2cn1)N1CCCC1c1ccccc1` (stereo not drawn) [Example 3, 3-(2,4-Difluorophenoxy)-7-(1-(2-phenylpyrrolidin-1-yl)ethyl)-1,6-naphthyridine] was tested, and the IC50 (MRGPRX2 [1]) was 0.0001 to 0.1 µM, the IC50 (MRGPRX2 [2]) was 0.0001 to 0.1 µM and the IC50 (MRGPRX2 [3]) was 0.0001 to 0.1 µM.

With `COc1ccc(C2CCCN2C(c2cc3ncc(Oc4ccc(F)cc4F)cc3cn2)C(F)(F)F)cc1` (stereo not drawn) [Example 15, 3-(2,4-Difluorophenoxy)-7-(2,2,2-trifluoro-1-(2-(4-methoxyphenyl)pyrrolidin-1-yl)ethyl)-1,6-naphthyridine] the IC50 (MRGPRX2 [1]) was 0.0001 to 0.1 µM, the IC50 (MRGPRX2 [2]) was 0.0001 to 0.1 µM and the IC50 (MRGPRX2 [3]) was 0.0001 to 0.1 µM.

`CC(c1cc2ncc(Oc3ccc(F)cc3F)cc2cn1)N1CCC(F)(F)CC1` (stereo not drawn) [Example 1, 3-(2,4-Difluorophenoxy)-7-(1-(4,4-difluoropiperidin-1-yl)ethyl)-1,6-naphthyridine] showed an IC50 (MRGPRX2 [1]) of 0.1 to 1 µM, an IC50 (MRGPRX2 [2]) of 0.1 to 1 µM and an IC50 (MRGPRX2 [3]) of 0.0001 to 0.1 µM.

In the case of `NC(=O)[C@@H]1CCCN1C(c1cc2ncc(Oc3ccc(F)cc3F)cc2cn1)C(F)(F)F` (stereo partly drawn) [Example 14, (2S)-1-(1-(3-(2,4-Difluorophenoxy)-1,6-naphthyridin-7-yl)-2,2,2-trifluoroethyl)pyrrolidine-2-carboxamide], the IC50 (MRGPRX2 [1]) is reported as 0.0001 to 0.1 µM, the IC50 (MRGPRX2 [2]) is reported as 0.0001 to 0.1 µM and the IC50 (MRGPRX2 [3]) is reported as 0.0001 to 0.1 µM.

For `CC(c1cc2ncc(Oc3ccc(F)cc3F)cc2cn1)N1CCC(F)(F)C(c2ccc(=O)[nH]c2)C1` (stereo not drawn) [Example 4, 5-(1-(1-(3-(2,4-Difluorophenoxy)-1,6-naphthyridin-7-yl)ethyl)-4,4-difluoropiperidin-3-yl)pyridin-2(1H)-one], the IC50 (MRGPRX2 [1]) was 0.0001 to 0.1 µM, the IC50 (MRGPRX2 [2]) was 0.0001 to 0.1 µM and the IC50 (MRGPRX2 [3]) was 0.0001 to 0.1 µM.
